Values after ≈ are worked out from the molar mass of the structure shown.
Tests used:
[1] = tested on: Aspergillus niger; experiment: Agar well inhibition zone test against fungi, Aspergillus niger (Table II); settings: quantity per well giving inhibition zone (500, 50, 5 μg tested); Sabouraud agar, 28°, 48 hours
Procedure: (§1) The efficacy of the compounds against fungi was tested as follows:
(§2) The test organisms, in this case the blastomycete Candida albicans and the mold Aspergillus niger, were inoculated onto Sabouraud agar plates by pouring a photometrically adjusted standard suspension of organisms on the plate. After inoculation, wells with a diameter of 5.0 mm were punched in the agar, and filled with 50 ul of the compound solution mentioned before. The quantity of compound applied thus amounted to 500 μg, 50 μg and 5 μg. After incubation at 28° for 48 hours, the quantity of compound was determined at which an inhibition of the organism's growth, in form of an inhibition zone around the corresponding well, was present.

[2] = tested on: A. niger; experiment: Minimum inhibitory concentration for fungi, tube dilution, A. niger (Table IV); settings: Aspergillus niger, 48 h, read-out: Minimum Inhibitory Concentration, A. niger
Procedure: (§3) A tube dilution series of the respective compound in Sabouraud nutrient broth, whose individual tubes contained concentrations of 1024 μg, 512 μg, 256 μg, 128 μg, 64 μg, 32 μg, 16 μg, 8 μg, 4 μg, 2 μg, 1.1 μg and 0.5 μg/ml, was prepared and inoculated with a photometrically standardized suspension of the test organisms or the spores thereof.

[3] = tested on: Escherichia coli; experiment: Agar well inhibition zone test against bacteria, Escherichia coli (Table III); settings: quantity per well giving inhibition zone (500, 50, 5 μg tested); nutrient agar, 37°, 24 hours
[4] = tested on: C. albicans; experiment: Minimum inhibitory concentration for fungi, tube dilution, C. albicans (Table IV); settings: Candida albicans, 48 h, read-out: Minimum Inhibitory Concentration, C. albicans
Procedure: as §3

[5] = tested on: Candida albicans; experiment: Agar well inhibition zone test against fungi, Candida albicans (Table II); settings: quantity per well giving inhibition zone (500, 50, 5 μg tested); Sabouraud agar, 28°, 48 hours
Procedure: as §1, §2

[6] = Solubility in water; assay type: physicochemical; settings: hydrochlorides or oxalates, read-out: solubilities (in water)
Procedure: The following list contains examples of those compounds which are made according to the methods disclosed. (The individual compounds are identified by elementary analyses and infrared spectra, by ultra-violet or nuclear resonance spectra, if necessary.) Individual melting points and solubilities (in water) are also given as is the method by which each compound is prepared.
The melting points and solubilities are given for the Hydrochlorides I - XVI; XVIII - XXVII; XXIX - XXXV; XXXVII - XLII; XLIV - LXII; LXIV - LXVII, and the Oxalates XVII; […]; XXXVI; LXIII.

[7] = tested on: C. albicans; experiment: Minimum inhibitory concentration for fungi in presence of serum, C. albicans (Table VI); assay type: cell-based; settings: Candida albicans; Sabouraud nutrient broth + 10% bovine serum, 28°C, 48 hours
[8] = tested on: Mycobacterium tuberculosis II 37 RV (typus humanus); experiment: Efficacy against Mycobacteria, Tb-broth dilution series (Table I); assay type: cell-based; settings: 504 h, Dubos Tb-broth + 10% bovine serum, 21 days, read-out: Minimum Inhibitory Concentration
[9] = tested on: Staphylococcus aureus; experiment: Agar well inhibition zone test against bacteria, Staphylococcus aureus (Table III); settings: quantity per well giving inhibition zone (500, 50, 5 μg tested); nutrient agar, 37°, 24 hours
Procedure: The efficacy of the compounds against bacteria was tested as follows:
The test organisms, in this case Staphylococcus aureus and Escherichia coli, were inoculated on nutrient agar as described in Example 12, wells were punched, and the solutions of the compounds were transferred to fill the wells. The quantity of compound in the wells amounted again to 500 μg, 50 μg and 5 μg.
After incubation a 37° for 24 hours the quantity of compound was determined at which an inhibition of the organism's growth, in the form of an inhibition zone around the corresponding well, occurred.

[10] = tested on: Staph. aureus; experiment: Minimum inhibitory concentration for bacteria, tube dilution, Staph. aureus (Table V); settings: Staphylococcus aureus, 48 h, read-out: Minimum Inhibitory Concentration, Staph. aureus
Procedure: A tube dilution series of the respective compound in nutrient broth whose individual tubes contained concentrations of 1024 μg, 512 μg, 256 μg, 128 μg, 64 μg, 32 μg, 1 μg, 8 μg, 4 μg, 2 μg, 1.1 μg and 0.5 μg/ml was prepared and inoculated with a photometrically standardized suspension of the test organisms.

[11] = tested on: A. niger; experiment: Minimum inhibitory concentration for fungi in presence of serum, A. niger (Table VI); assay type: cell-based; settings: Aspergillus niger; Sabouraud nutrient broth + 10% bovine serum, 28°C, 48 hours
[12] = tested on: E. coli; experiment: Minimum inhibitory concentration for bacteria, tube dilution, E. coli (Table V); assay type: cell-based; settings: Escherichia coli, 48 h, read-out: Minimum Inhibitory Concentration, E. coli

Compound	Inhibition Area at μg, Asp. niger [1]	MIC [2]	Inhibition Area at μg, E. coli [3]	MIC [4]	Inhibition Area at μg, Cand. albicans [5]	solubility [6]	MIC [7]	MIC [8]	Inhibition Area at μg, Staph. aureus [9]	MIC [10]	MIC [11]	MIC [12]
CC1CCN(CCN2CCN(C(C)C(O)(Cc3ccccc3)Cc3ccccc3)CC2)CC1 (stereo not drawn) [IX, 1-phenyl-2-benzyl-3-{4'-[β-(4"-methyl-piperidino)-ethyl]-piperazino-1'}-butanol-2]	50 µg	128 µg/mL (≈ 285 µM)	500 µg	16 µg/mL (≈ 35.6 µM)	50 µg	50 mg/mL (≈ 111000 µM)	32 µg/mL	100 µg/mL	500 µg			
CC(N1CCN(C)CC1)C(O)(Cc1ccc(Cl)cc1)Cc1ccc(Cl)cc1 (stereo not shown) [XLVIII, 1-p-chlorophenyl-2-p-chlorobenzyl-3-(4'-methyl-piperazino-1')-butanol-2]	50 µg	4 µg/mL (≈ 9.82 µM)	50 µg	8 µg/mL (≈ 19.6 µM)	50 µg	50 mg/mL (≈ 123000 µM)	> 1020 µg/mL		50 µg	128 µg/mL (≈ 314 µM)	256 µg/mL	> 1020 µg/mL
CC(C(=Cc1ccccc1)Cc1ccccc1)N1CCN(CCN2CCCC2)CC1 (stereo not drawn) [XXIX, 1-phenyl-2-benzyl-3-[4'-(β-pyrrolidino-ethyl)-piperazino-1']-butene-1]	50 µg	16 µg/mL (≈ 39.6 µM)	500 µg	8 µg/mL (≈ 19.8 µM)	50 µg	100 mg/mL (≈ 248000 µM)	128 µg/mL	10 µg/mL	50 µg	128 µg/mL (≈ 317 µM)	32 µg/mL	
CC(N1CCNCC1)C(O)(Cc1ccccc1)Cc1ccccc1 (stereo not shown) [L, 1-phenyl-2-benzyl-3-piperazino-butanol-2]	50 µg		500 µg		50 µg	10 mg/mL (≈ 30800 µM)	512 µg/mL	500 µg/mL	500 µg			
CC(N1CCN(CCCN2CCCCC2)CC1)C(O)(Cc1ccccc1)Cc1ccccc1 (stereo not shown) [XIX, 1-phenyl-2-benzyl-3-[4'-(γ-piperidinopropyl)-piperazino-1']-butanol-2]	5 µg	32 µg/mL (≈ 71.2 µM)	500 µg	16 µg/mL (≈ 35.6 µM)	5 µg	100 mg/mL (≈ 222000 µM)	16 µg/mL	100 µg/mL	500 µg		32 µg/mL	
CC(N1CCN(CCN(C)Cc2ccccc2)CC1)C(O)(Cc1ccccc1)Cc1ccccc1 (stereo not drawn) [XV, 1-phenyl-2-benzyl-3-[4'-(β-N-methyl-N-benzylamino-ethyl)-piperazino-1']-butanol-2]	50 µg	128 µg/mL (≈ 271 µM)	50 µg	16 µg/mL (≈ 33.9 µM)	50 µg	100 mg/mL (≈ 212000 µM)	512 µg/mL		50 µg	> 1020 µg/mL		> 1020 µg/mL
CC1CCCN(CCN2CCN(C(C)C(O)(Cc3ccccc3)Cc3ccccc3)CC2)C1 (stereo not drawn) [VIII, 1-phenyl-2-benzyl-3-{4'-[β-(3"-methyl-piperidino)-ethyl]-piperazino-1'}butanol-2]	500 µg		> 500 µg	16 µg/mL (≈ 35.6 µM)	50 µg	50 mg/mL (≈ 111000 µM)	16 µg/mL	100 µg/mL	50 µg	512 µg/mL (≈ 1140 µM)		
CC(N1CCN(CCN2CCN(Cc3ccccc3)CC2)CC1)C(O)(Cc1ccccc1)Cc1ccccc1 (stereo not drawn) [XII, 1-phenyl-2-benzyl-3-{4'-[β-(4"-benzyl-piperazino-1")-ethyl]-piperazino-1'}-butanol-2]	50 µg	16 µg/mL (≈ 30.4 µM)	500 µg	64 µg/mL (≈ 121 µM)	5 µg	100 mg/mL (≈ 190000 µM)	256 µg/mL	100 µg/mL	50 µg	64 µg/mL (≈ 121 µM)	> 1020 µg/mL	
CC1CCCCN1CCN1CCN(C(C)C(O)(Cc2ccccc2)Cc2ccccc2)CC1 (stereo not drawn) [VII, 1-phenyl-2-benzyl-3-{4'-[β-(2"-methyl-piperidino)-ethyl]-piperazino-1'}-butanol-2]	500 µg		> 500 µg	32 µg/mL (≈ 71.2 µM)	50 µg	50 mg/mL (≈ 111000 µM)	32 µg/mL	10 µg/mL	500 µg			
Cc1cccc(CC(O)(Cc2cccc(C)c2)C(C)N2CCN(C)CC2)c1 (stereo not shown) [IL, 1-m-tolyl-2-(m-methyl-benzyl)-3-(4'-methyl-piperazino-1')-butanol-2]	50 µg	32 µg/mL (≈ 87.3 µM)	500 µg	32 µg/mL (≈ 87.3 µM)	50 µg	50 mg/mL (≈ 136000 µM)	256 µg/mL	100 µg/mL	50 µg	128 µg/mL (≈ 349 µM)	128 µg/mL	
CCC(N1CCN(C)CC1)C(O)(Cc1ccccc1)Cc1ccccc1 (stereo not shown) [LVIII, 1-phenyl-2-benzyl-3-(4'-methyl-piperazino-1')-pentanol-2]	50 µg	128 µg/mL (≈ 363 µM)	500 µg	256 µg/mL (≈ 726 µM)	50 µg	< 10 mg/mL		100 µg/mL	50 µg	256 µg/mL (≈ 726 µM)		
CC(N1CCN(CCN2CCCC2)CC1)C(O)(Cc1ccccc1)Cc1ccccc1 (stereo not drawn) [III, 1-phenyl-2-benzyl-3-[4'-(β-pyrrolidino-ethyl)-piperazino-1']-butanol-2]	50 µg	64 µg/mL (≈ 152 µM)	500 µg	32 µg/mL (≈ 75.9 µM)	50 µg	50 mg/mL (≈ 119000 µM)	64 µg/mL	50 µg/mL	50 µg	512 µg/mL (≈ 1210 µM)	128 µg/mL	
CC(N1CCN(CCN2CCOCC2)CC1)C(O)(Cc1ccccc1)Cc1ccccc1 (stereo not drawn) [V, 1-phenyl-2-benzyl-3-[4'-(β-morpholino-ethyl)-piperazino-1']-butanol-2]	50 µg	64 µg/mL (≈ 146 µM)	500 µg	> 1020 µg/mL	50 µg	50 mg/mL (≈ 114000 µM)		100 µg/mL	50 µg	512 µg/mL (≈ 1170 µM)	256 µg/mL	
CC(N1CCN(CCN2CCCCC2)CC1)C(O)(Cc1ccccc1)Cc1ccccc1 (stereo not drawn) [IV, 1-phenyl-2-benzyl-3-[4'-(β-piperidino-ethyl)-piperazino-1']-butanol-2]	500 µg		> 500 µg	32 µg/mL (≈ 73.5 µM)	50 µg	50 mg/mL (≈ 115000 µM)	32 µg/mL	100 µg/mL	500 µg			
CC(C(=Cc1ccccc1)Cc1ccccc1)N1CCN(CCN2CCCCC2)CC1 (stereo not drawn) [XXX, 1-phenyl-2-benzyl-3-[4'-(β-piperidino-ethyl)-piperazino-1']-butene-1]	5 µg	32 µg/mL (≈ 76.6 µM)	500 µg	16 µg/mL (≈ 38.3 µM)	50 µg	10 mg/mL (≈ 23900 µM)	256 µg/mL	50 µg/mL	50 µg	128 µg/mL (≈ 306 µM)	32 µg/mL	
CCN(CC)CCN1CCN(C(C)C(=Cc2ccccc2)Cc2ccccc2)CC1 (stereo not drawn) [XXVII, 1-phenyl-2-benzyl-3-[4'-(β-diethylamino-ethyl)-piperazino-1']-butene-1]	5 µg	128 µg/mL (≈ 316 µM)	500 µg	256 µg/mL (≈ 631 µM)	5 µg	100 mg/mL (≈ 247000 µM)		10 µg/mL	50 µg	256 µg/mL (≈ 631 µM)		
CC(N1CCN(Cc2ccccn2)CC1)C(O)(Cc1ccccc1)Cc1ccccc1 (stereo not shown) [XXII, 1-phenyl-2-benzyl-3-[4'-(2"-pyridylmethyl)-piperazino-1']-butanol-2]	500 µg		> 500 µg		500 µg	50 mg/mL (≈ 120000 µM)	512 µg/mL	500 µg/mL	50 µg	> 1020 µg/mL		

From patent US3947411A, “Novel 1-aryl-2-arylalkyl-3-or-4-[4'-(substituted-alkyl)piperazino-1']butanols- 2-or-butenes-1, and methods of manufacture thereof” (Warner-Lambert Company, priority 1972, dated 1976)
